Consider four compounds from ChEMBL document CHEMBL5729144, “1-cyano-pyrrolidine derivatives as DUB inhibitors” (2022).

Each structure is given as a SMILES string.

The target of the test is T1, Ubiquitin carboxyl-terminal hydrolase 30 (Homo sapiens, UniProt Q70CQ3).
T1 sequence (Q70CQ3 whole entry): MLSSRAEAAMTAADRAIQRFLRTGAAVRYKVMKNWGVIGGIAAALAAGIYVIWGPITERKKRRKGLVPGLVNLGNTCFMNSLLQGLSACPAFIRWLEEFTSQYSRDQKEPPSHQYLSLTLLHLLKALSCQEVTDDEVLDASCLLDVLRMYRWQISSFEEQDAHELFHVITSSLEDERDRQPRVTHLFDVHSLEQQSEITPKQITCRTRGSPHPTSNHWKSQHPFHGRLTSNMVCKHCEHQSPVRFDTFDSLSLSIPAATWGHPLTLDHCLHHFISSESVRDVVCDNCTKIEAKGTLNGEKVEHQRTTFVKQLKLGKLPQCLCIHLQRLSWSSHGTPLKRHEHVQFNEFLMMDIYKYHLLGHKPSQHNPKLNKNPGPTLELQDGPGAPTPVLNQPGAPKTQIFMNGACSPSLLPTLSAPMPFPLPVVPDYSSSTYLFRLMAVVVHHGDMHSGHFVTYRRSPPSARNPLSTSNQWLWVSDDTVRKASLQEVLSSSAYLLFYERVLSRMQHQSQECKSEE
As to the kind of experiment: A typical 8-point dilution series would be 100, 30, 10, 3, 1, 0.3, 0.1, 0.03 μM final. Reactions were performed in duplicate in black 384 well plates (small volume, Greiner 784076) in a final reaction volume of 21 μl. Either 1 μl of 50% DMSO or diluted compound was added to the plate. USP30 was diluted in reaction buffer (40 mM Tris, pH 7.5, 0.005% Tween 20, 0.5 mg/ml BSA, 5 mM beta-mercaptoethanol) to the equivalent of 0.05 μl/well and 10 μl of diluted USP30 was added to the compound. Enzyme and compound were incubated for 30 min at room temp. Reactions were initiated by the addition of 50 nM of TAMRA labelled peptide linked to ubiquitin via an iso-peptide bond as fluorescence polarisation substrate. Reactions were read immediately after addition of substrate and following a 2 h incubation at room temperature. Readings were performed on a Pherastar Plus (BMG Labtech). λ Excitation 540 nm; λ Emission 590 nm.
With `N#Cc1cccc(-c2cccc(-c3nc(C4CCCN4C#N)no3)c2)c1F` (centres undefined), the IC50 was less than 0.1 µM.
On to `N#Cc1ccc(-c2cccc(-c3nc(C4CCCN4C#N)no3)c2)s1` (centres undefined), for which the IC50 was less than 0.1 µM.
Turning to `N#CN1CCCC1c1noc(-c2cccc(-c3cccc([N+](=O)[O-])c3)c2)n1` (centres undefined), the IC50 was less than 0.1 µM.
In the case of `N#Cc1cccc(-c2cc(-c3nc([C@@H]4CCCN4C#N)no3)ccn2)c1`, the IC50 was less than 0.1 µM.
